# Measurements reported in patent US20250313565A1, “NEW INDAZOLE DERIVATIVES” (Hoffmann-La Roche Inc., priority 2022, published 2025).
# Biological target: T1, EGFR LRCS (BaF3-LRCS cell line) (Homo sapiens, UniProt P00533, C797S/L858R)
# T1 construct: host or cells: BaF3-LRCS cell line (kept under puromycin selection)
# Experiment: HTRF Phospho EGFR LRCS assay (cellular)
# Assay type: cell-based
# Details: BaF3-LRCS cells, 4 hours incubation, Phospho-EGFR HTRF readout
# Method: HTRF Phospho EGFR LRCS assay (cellular)
# BaF3-LRCS cell line were obtained from Crownbio (San Diego, CA, USA). Cells were maintained at 37° C., 5% C02 in RPMI ATCC (Gibco 31870)+2 mM Glutamine+0.5 μg/ml Puromycin supplemented with 10% fetal bovine serum (FBS) (Gibco).
# Cells are transferred as above to Greiner Bio-One, Nr. 784-08 micro-titerplate at 20000 cells/well in 12.5 μl of growth medium/well after the plates had been pre-filled with 12.5 nl of DMSO solutions of the to be tested compounds (in dose response) or DMSO only. After spinning the plates at 300×g for 30 seconds the cells were incubated for 4 hours at 37 C, 5% CO2, 95% humidity. The cells were lysed by adding to the compound mix 4 µl/well of the supplemented lysis buffer (Cis-bio, Phospho-EGFR HTRF kit, 64EG1PEH), followed by incubation for 30 min at room temperature with shaking (400 rpm). The plates were then frozen and stored overnight at −80° C. On the next day and after thawing the plates, 4 μl of a mixture of anti-Phospho-EGFR Cryptate and of anti-Phospho-EGFR-d2 antibody solutions prepared in the supplied detection buffer was added to each well. The lidded plates were then incubated for 4 h at room temperature before reading the fluorescence emission at 616 and 665 nm using an Envision reader (Perkin Elmer). Data was analyzed in similar fashion as above using the normalized ratio of the 665 to 616 signals multiplied by 10000.
# T1 sequence (P00533 25-1210 C797S/L858R): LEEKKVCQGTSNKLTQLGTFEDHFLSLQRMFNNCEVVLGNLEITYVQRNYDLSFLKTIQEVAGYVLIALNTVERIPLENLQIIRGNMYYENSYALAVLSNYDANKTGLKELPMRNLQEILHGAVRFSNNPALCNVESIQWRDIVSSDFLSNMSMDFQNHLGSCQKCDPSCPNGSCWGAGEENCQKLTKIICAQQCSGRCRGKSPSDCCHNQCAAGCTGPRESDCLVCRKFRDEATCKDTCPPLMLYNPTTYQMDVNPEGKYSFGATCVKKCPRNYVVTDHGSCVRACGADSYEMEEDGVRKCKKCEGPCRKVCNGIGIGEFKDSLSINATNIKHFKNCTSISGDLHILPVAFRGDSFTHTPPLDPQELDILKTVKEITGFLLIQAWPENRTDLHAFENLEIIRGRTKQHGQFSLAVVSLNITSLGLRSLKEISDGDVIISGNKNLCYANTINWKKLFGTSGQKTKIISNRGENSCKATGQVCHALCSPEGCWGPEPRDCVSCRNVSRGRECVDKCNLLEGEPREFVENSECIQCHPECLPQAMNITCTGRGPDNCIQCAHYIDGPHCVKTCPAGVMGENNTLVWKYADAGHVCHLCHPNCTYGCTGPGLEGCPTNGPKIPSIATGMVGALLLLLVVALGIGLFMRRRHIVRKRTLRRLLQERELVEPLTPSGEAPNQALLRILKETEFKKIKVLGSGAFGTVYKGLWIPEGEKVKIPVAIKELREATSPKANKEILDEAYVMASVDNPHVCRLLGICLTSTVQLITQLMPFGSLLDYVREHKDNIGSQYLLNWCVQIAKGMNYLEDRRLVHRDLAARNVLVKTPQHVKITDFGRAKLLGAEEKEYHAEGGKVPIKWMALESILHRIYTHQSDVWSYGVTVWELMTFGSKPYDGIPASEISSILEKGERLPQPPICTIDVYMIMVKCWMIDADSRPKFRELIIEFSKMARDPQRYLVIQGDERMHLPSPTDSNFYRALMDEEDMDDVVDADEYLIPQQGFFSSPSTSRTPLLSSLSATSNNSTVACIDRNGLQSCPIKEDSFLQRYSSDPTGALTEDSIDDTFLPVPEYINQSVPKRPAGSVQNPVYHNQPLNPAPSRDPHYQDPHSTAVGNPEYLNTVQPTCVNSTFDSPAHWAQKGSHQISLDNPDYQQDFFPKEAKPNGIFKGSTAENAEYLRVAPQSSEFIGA
row,IC50 [nM],Structure (SMILES)
1,45,"Cc1c(-c2ccc(N3CCOCC3)cc2)cc(C(F)(F)F)c2cn(C(C(=O)Nc3nccs3)c3ncn4c3CCC43CC3)nc12 (stereo not drawn) [Example 2, 2-[7-Methyl-6-(4-morpholinophenyl)-4-(trifluoromethyl)indazol-2-yl]-2-spiro[6,7-dihydropyrrolo[1,2-c]imidazole-5,1′-cyclopropane]-1-yl-N-thiazol-2-yl-acetamide]"
2,20,"Cc1c(-c2ccc(N3CCOCC3)cc2)cc(C(F)F)c2cn(C(C(=O)Nc3nccs3)c3ncn4c3CCC43CC3)nc12 (stereo not drawn) [Example 1, 2-[4-(Difluoromethyl)-7-methyl-6-(4-morpholinophenyl)indazol-2-yl]-2-spiro[6,7-dihydropyrrolo[1,2-c]imidazole-5,1′-cyclopropane]-1-yl-N-thiazol-2-yl-acetamide]"
3,45,"Cc1c(-c2ccc(N3CCOCC3)cc2)cc(C(F)(F)F)c2cn(C(C(=O)Nc3nccs3)c3ncn4c3CCC4(C)C)nc12 (stereo not drawn) [Example 3, 2-(5,5-Dimethyl-6,7-dihydropyrrolo[1,2-c]imidazol-1-yl)-2-[7-methyl-6-(4-morpholinophenyl)-4-(trifluoromethyl)indazol-2-yl]-N-thiazol-2-yl-acetamide]"
